Test results from PubChem BioAssay (NCI).
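Following 48 hours of exposure in 96-well plates, responses at five concentrations were used to interpolate endpoints linearly. GI50: concentration for 50% inhibition of growth. Definition used: TGI = concentration required for complete inhibition of growth.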

Legend:
Assay in all cases: NCI anticancer screen, dose series, 48 h
SK-MEL-28 melanoma = test system: SK-MEL-28 melanoma
DU-145 prostate = test system: DU-145 prostate
UACC-257 melanoma = test system: UACC-257 melanoma
HCT-116 colon = test system: HCT-116 colon
NCI-H522 lung = test system: NCI-H522 lung
OVCAR-4 ovarian = test system: OVCAR-4 ovarian
A549 NSCLC = test system: A549 NSCLC
HT29 colon = test system: HT29 colon
SNB-75 CNS = test system: SNB-75 CNS
T-47D breast = test system: T-47D breast
SF-295 CNS = test system: SF-295 CNS
OVCAR-8 ovarian = test system: OVCAR-8 ovarian
SW-620 colon = test system: SW-620 colon
NCI/ADR-RES ovarian = test system: NCI/ADR-RES ovarian
MDA-MB-435 = test system: MDA-MB-435
SR leukemia = test system: SR leukemia
SK-MEL-2 melanoma = test system: SK-MEL-2 melanoma
MCF7 breast = test system: MCF7 breast
UACC-62 melanoma = test system: UACC-62 melanoma
HCC-2998 colon = test system: HCC-2998 colon
COLO 205 colon = test system: COLO 205 colon
EKVX NSCLC = test system: EKVX NSCLC
MALME-3M melanoma = test system: MALME-3M melanoma
SF-268 CNS = test system: SF-268 CNS
SN12C renal = test system: SN12C renal
NCI-H460 lung = test system: NCI-H460 lung
CAKI-1 renal = test system: CAKI-1 renal
MOLT-4 leukemia = test system: MOLT-4 leukemia
HL-60(TB) leukemia = test system: HL-60(TB) leukemia
OVCAR-5 ovarian = test system: OVCAR-5 ovarian
CCRF-CEM leukemia = test system: CCRF-CEM leukemia
SK-MEL-5 melanoma = test system: SK-MEL-5 melanoma
SK-OV-3 ovarian = test system: SK-OV-3 ovarian
A498 renal = test system: A498 renal
RPMI-8226 leukemia = test system: RPMI-8226 leukemia
BT-549 breast = test system: BT-549 breast
TK-10 renal = test system: TK-10 renal
HS 578T breast = test system: HS 578T breast
MDA-MB-231 breast = test system: MDA-MB-231 breast
K-562 leukemia = test system: K-562 leukemia
HOP-62 NSCLC = test system: HOP-62 NSCLC

C#Cc1ccc(NC(=O)c2ccc(/C=C/C(=O)c3nccn3C)cc2)c(F)c1
GI50 (SK-MEL-28 melanoma): > 50000 nM | TGI (SK-MEL-28 melanoma): > 50000 nM | GI50 (DU-145 prostate): 1810 nM | TGI (DU-145 prostate): 45600 nM | GI50 (UACC-257 melanoma): > 50000 nM | TGI (UACC-257 melanoma): > 50000 nM | GI50 (HCT-116 colon): 876 nM | TGI (HCT-116 colon): 1940 nM | GI50 (NCI-H522 lung): 2160 nM | TGI (NCI-H522 lung): > 50000 nM | GI50 (OVCAR-4 ovarian): 2650 nM | TGI (OVCAR-4 ovarian): > 50000 nM | GI50 (A549 NSCLC): 1510 nM | TGI (A549 NSCLC): > 50000 nM | GI50 (HT29 colon): 1490 nM | TGI (HT29 colon): > 50000 nM | GI50 (SNB-75 CNS): 1000 nM | TGI (SNB-75 CNS): 4340 nM | GI50 (T-47D breast): 1840 nM | TGI (T-47D breast): > 50000 nM | GI50 (SF-295 CNS): 1740 nM | TGI (SF-295 CNS): 16800 nM | GI50 (OVCAR-8 ovarian): 1910 nM | TGI (OVCAR-8 ovarian): > 50000 nM | GI50 (SW-620 colon): 1330 nM | TGI (SW-620 colon): > 50000 nM | GI50 (NCI/ADR-RES ovarian): 1500 nM | TGI (NCI/ADR-RES ovarian): > 50000 nM | GI50 (MDA-MB-435): 1860 nM | TGI (MDA-MB-435): > 50000 nM | GI50 (SR leukemia): 545 nM | TGI (SR leukemia): 4440 nM | GI50 (SK-MEL-2 melanoma): > 50000 nM | TGI (SK-MEL-2 melanoma): > 50000 nM | GI50 (MCF7 breast): 1290 nM | TGI (MCF7 breast): > 50000 nM | GI50 (UACC-62 melanoma): 1930 nM | TGI (UACC-62 melanoma): > 50000 nM | GI50 (HCC-2998 colon): 1740 nM | TGI (HCC-2998 colon): > 50000 nM | GI50 (COLO 205 colon): 4020 nM | TGI (COLO 205 colon): > 50000 nM | GI50 (EKVX NSCLC): 1410 nM | TGI (EKVX NSCLC): > 50000 nM | GI50 (MALME-3M melanoma): 3760 nM | TGI (MALME-3M melanoma): > 50000 nM | GI50 (SF-268 CNS): 1630 nM | TGI (SF-268 CNS): > 50000 nM | GI50 (SN12C renal): 1440 nM | TGI (SN12C renal): > 50000 nM | GI50 (NCI-H460 lung): 1120 nM | TGI (NCI-H460 lung): 2680 nM | GI50 (CAKI-1 renal): 2270 nM | TGI (CAKI-1 renal): > 50000 nM | GI50 (MOLT-4 leukemia): 1370 nM | TGI (MOLT-4 leukemia): 5420 nM | GI50 (HL-60(TB) leukemia): 844 nM | TGI (HL-60(TB) leukemia): 2430 nM | GI50 (OVCAR-5 ovarian): 1770 nM | TGI (OVCAR-5 ovarian): > 50000 nM | GI50 (CCRF-CEM leukemia): 1080 nM | TGI (CCRF-CEM leukemia): 5850 nM | GI50 (SK-MEL-5 melanoma): 2040 nM | TGI (SK-MEL-5 melanoma): > 50000 nM | GI50 (SK-OV-3 ovarian): 2530 nM | TGI (SK-OV-3 ovarian): > 50000 nM | GI50 (A498 renal): 2500 nM | TGI (A498 renal): > 50000 nM | GI50 (RPMI-8226 leukemia): 522 nM | TGI (RPMI-8226 leukemia): 2140 nM | GI50 (BT-549 breast): 823 nM | TGI (BT-549 breast): 2250 nM | GI50 (TK-10 renal): > 50000 nM | TGI (TK-10 renal): > 50000 nM | GI50 (HS 578T breast): 1880 nM | TGI (HS 578T breast): > 50000 nM | GI50 (MDA-MB-231 breast): 2140 nM | TGI (MDA-MB-231 breast): 22400 nM | GI50 (K-562 leukemia): 853 nM | TGI (K-562 leukemia): > 50000 nM | GI50 (HOP-62 NSCLC): 1540 nM | TGI (HOP-62 NSCLC): > 50000 nM
